Reference: PMC4457528, “Identification of Novel Small Molecule Inhibitors of Oncogenic RET Kinase” (PLoS ONE, 2015)
Like-named read-outs stand apart in the source and are kept apart here.

Legend:
Experiment in all cases: KinomeScan kinase panel, single concentration 10 µM
Assay type in all cases: binding
KinomeScan kinase panel [1] = biological target: T1, KinomeScan kinase panel (Homo sapiens, UniProt Q9UK32); settings: 10 µM
T1 construct: purchased DiscoveRx (KinomeScan)

KinomeScan kinase panel [2] = biological target: T2, KinomeScan kinase panel (Homo sapiens, UniProt Q12866); settings: MERTK, 10 µM; read-out: score (%)
T2 construct: purchased DiscoveRx (KinomeScan)
T2 sequence (Q12866 21-999): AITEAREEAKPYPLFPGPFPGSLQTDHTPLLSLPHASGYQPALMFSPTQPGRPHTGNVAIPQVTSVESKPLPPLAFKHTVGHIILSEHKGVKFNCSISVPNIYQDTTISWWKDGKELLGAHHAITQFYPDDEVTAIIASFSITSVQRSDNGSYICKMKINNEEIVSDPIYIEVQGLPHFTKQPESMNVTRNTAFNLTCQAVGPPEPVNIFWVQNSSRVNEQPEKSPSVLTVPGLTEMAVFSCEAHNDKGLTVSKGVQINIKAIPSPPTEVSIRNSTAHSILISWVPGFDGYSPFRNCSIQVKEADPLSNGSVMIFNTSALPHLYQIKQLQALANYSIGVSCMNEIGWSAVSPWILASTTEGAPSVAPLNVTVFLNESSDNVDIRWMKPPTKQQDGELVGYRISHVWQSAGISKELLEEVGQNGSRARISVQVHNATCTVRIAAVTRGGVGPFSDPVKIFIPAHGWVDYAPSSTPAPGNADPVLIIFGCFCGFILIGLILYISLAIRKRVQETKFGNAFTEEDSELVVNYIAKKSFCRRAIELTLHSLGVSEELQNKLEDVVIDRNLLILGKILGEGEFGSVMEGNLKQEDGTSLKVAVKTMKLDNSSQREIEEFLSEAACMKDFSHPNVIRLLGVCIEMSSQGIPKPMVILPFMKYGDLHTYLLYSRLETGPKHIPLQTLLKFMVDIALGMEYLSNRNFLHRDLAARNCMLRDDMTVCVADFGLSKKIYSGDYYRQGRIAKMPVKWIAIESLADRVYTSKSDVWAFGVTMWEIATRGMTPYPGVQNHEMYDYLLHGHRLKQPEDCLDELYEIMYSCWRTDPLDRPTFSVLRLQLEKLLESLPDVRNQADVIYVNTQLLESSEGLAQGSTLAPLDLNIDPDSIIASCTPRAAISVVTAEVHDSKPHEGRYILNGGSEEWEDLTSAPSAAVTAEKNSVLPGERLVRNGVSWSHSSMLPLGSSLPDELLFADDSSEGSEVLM

KinomeScan kinase panel [3] = biological target: T3, KinomeScan kinase panel (Homo sapiens, UniProt P33981); settings: kinase TTK; 10 µM; read-out: score (%)
T3 construct: purchased DiscoveRx (KinomeScan)
T3 sequence (P33981 1-857): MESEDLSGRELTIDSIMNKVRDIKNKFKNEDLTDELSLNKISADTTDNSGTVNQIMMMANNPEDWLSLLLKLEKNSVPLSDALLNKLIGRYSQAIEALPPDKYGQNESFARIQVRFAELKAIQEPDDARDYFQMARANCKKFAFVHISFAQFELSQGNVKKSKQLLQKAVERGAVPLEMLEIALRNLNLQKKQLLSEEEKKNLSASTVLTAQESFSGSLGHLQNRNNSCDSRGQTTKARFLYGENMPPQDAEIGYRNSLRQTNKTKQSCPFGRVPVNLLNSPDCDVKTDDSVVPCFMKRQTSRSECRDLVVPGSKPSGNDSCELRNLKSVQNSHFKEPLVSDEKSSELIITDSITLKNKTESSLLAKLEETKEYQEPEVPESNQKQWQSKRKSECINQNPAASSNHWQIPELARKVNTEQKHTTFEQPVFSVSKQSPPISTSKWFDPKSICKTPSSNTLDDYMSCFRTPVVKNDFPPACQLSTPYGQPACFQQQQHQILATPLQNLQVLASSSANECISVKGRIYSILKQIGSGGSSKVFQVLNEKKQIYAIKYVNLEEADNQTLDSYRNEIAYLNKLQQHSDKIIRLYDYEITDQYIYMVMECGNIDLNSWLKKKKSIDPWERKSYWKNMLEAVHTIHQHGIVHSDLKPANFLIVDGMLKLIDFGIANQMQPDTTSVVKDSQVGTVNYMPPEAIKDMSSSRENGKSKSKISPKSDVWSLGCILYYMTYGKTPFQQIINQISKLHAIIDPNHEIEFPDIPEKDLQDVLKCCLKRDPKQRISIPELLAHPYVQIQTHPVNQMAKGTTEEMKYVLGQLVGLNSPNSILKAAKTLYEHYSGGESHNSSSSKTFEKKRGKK

KinomeScan kinase panel [4] = biological target: T4, KinomeScan kinase panel (Homo sapiens, UniProt Q9HC98); settings: NEK6, 10 µM; read-out: score (%)
T4 construct: purchased DiscoveRx (KinomeScan)

KinomeScan kinase panel [5] = biological target: T5, KinomeScan kinase panel (Homo sapiens, UniProt Q02779); settings: MLK2, 10 µM; read-out: score (%)
T5 construct: purchased DiscoveRx (KinomeScan)

KinomeScan kinase panel [6] = biological target: T6, KinomeScan kinase panel (Homo sapiens, UniProt P11309); settings: PIM1, 10 µM; read-out: score (%)
T6 construct: purchased DiscoveRx (KinomeScan)

KinomeScan kinase panel [7] = biological target: T7, KinomeScan kinase panel (Homo sapiens, UniProt P52564); settings: MEK6, 10 µM; read-out: score (%)
T7 construct: purchased DiscoveRx (KinomeScan)
T7 sequence (P52564 1-334): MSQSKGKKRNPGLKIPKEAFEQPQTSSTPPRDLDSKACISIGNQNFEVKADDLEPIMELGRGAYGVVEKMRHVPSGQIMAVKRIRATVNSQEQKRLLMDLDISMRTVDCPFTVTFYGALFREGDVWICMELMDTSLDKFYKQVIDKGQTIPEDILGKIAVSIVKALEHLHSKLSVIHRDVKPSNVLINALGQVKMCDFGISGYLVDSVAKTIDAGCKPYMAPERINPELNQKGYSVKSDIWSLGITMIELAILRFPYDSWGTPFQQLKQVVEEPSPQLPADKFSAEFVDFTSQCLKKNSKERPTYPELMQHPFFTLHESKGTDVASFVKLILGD

KinomeScan kinase panel [8] = biological target: T8, KinomeScan kinase panel (Homo sapiens, UniProt Q8TDX7); settings: NEK7, 10 µM; read-out: score (%)
T8 construct: purchased DiscoveRx (KinomeScan)

KinomeScan kinase panel [9] = biological target: T9, KinomeScan kinase panel (Homo sapiens, UniProt P78368); settings: CSNK1G2, 10 µM
T9 construct: purchased DiscoveRx (KinomeScan)

KinomeScan kinase panel [10] = biological target: T10, KinomeScan kinase panel (Homo sapiens, UniProt Q9UKE5); settings: 10 µM, read-out: score (%)
T10 construct: purchased DiscoveRx (KinomeScan)
T10 sequence (Q9UKE5 whole entry): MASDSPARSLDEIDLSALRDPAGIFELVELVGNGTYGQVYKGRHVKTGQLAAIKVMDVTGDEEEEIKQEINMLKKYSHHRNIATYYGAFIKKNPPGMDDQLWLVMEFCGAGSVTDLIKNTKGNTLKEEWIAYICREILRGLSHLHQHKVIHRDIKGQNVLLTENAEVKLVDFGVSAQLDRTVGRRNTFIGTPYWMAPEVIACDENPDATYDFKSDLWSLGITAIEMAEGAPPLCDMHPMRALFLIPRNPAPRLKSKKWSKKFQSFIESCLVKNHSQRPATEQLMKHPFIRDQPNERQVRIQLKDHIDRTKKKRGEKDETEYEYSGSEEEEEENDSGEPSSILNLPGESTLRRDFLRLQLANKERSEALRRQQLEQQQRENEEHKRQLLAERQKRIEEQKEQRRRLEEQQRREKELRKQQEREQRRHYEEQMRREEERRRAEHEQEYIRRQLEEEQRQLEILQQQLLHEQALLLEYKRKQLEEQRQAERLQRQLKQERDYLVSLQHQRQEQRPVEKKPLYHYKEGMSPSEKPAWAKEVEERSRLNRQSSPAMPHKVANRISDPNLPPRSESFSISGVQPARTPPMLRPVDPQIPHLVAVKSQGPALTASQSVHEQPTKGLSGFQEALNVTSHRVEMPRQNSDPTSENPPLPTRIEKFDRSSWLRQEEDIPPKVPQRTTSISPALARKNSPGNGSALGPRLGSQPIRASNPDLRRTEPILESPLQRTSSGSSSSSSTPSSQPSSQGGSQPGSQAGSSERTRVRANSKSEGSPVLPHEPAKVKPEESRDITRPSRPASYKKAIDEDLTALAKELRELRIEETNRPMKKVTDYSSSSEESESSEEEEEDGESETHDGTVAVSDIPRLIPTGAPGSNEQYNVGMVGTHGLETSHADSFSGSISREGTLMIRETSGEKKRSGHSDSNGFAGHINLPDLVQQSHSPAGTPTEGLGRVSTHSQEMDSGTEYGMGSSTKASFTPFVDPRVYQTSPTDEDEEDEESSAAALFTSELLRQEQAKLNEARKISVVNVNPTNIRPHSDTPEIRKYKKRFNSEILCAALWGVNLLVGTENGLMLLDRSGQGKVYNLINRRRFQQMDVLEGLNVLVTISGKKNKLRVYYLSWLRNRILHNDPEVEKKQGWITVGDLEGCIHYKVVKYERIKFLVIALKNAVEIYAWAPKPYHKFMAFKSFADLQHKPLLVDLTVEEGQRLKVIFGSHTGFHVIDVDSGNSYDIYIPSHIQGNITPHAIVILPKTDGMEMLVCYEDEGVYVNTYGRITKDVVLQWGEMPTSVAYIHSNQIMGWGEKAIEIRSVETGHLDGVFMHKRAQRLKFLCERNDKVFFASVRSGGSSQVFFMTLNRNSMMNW

T5 sequence (Q02779 whole entry): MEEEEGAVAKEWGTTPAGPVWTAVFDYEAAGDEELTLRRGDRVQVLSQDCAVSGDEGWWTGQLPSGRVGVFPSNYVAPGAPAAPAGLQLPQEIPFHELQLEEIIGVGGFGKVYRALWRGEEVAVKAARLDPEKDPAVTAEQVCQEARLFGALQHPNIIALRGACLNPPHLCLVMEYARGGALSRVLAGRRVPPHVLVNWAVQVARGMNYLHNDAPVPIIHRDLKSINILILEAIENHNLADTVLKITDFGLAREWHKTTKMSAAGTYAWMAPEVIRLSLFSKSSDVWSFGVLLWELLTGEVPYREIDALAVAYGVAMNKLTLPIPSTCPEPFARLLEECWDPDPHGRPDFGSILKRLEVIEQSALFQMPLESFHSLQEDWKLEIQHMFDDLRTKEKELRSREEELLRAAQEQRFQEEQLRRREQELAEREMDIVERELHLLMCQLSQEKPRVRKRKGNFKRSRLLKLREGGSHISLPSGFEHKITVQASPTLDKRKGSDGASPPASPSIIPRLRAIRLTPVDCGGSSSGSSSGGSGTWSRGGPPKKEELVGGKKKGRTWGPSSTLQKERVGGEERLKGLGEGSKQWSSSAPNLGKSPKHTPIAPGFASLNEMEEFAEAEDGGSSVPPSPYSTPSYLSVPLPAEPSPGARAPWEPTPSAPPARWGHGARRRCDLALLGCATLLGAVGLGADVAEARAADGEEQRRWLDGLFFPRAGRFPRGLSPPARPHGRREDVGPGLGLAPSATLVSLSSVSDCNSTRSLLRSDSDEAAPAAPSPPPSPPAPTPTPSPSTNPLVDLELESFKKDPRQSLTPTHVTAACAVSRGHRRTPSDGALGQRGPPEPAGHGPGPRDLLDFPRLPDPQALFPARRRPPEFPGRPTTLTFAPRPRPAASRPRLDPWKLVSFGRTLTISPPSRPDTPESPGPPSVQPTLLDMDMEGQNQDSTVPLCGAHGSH
T8 sequence (Q8TDX7 whole entry): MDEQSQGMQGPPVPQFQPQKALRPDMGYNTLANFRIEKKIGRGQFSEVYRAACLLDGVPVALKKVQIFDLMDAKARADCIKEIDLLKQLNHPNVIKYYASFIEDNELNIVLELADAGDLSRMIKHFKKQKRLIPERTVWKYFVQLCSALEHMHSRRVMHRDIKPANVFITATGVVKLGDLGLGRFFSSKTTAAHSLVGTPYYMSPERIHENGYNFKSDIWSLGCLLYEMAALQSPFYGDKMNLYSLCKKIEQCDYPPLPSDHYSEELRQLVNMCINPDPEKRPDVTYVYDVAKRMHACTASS
T9 sequence (P78368 whole entry): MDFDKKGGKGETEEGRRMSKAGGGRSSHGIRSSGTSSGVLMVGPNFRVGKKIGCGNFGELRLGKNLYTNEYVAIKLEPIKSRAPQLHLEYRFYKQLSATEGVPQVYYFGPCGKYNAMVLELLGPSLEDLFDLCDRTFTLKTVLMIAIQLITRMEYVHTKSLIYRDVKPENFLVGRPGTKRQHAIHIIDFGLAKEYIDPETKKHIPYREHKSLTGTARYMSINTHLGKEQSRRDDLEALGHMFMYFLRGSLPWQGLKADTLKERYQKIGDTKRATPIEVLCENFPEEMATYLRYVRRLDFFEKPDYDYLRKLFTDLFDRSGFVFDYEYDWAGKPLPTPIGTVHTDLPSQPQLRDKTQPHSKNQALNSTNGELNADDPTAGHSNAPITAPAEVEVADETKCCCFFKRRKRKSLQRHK
T6 sequence (P11309 whole entry): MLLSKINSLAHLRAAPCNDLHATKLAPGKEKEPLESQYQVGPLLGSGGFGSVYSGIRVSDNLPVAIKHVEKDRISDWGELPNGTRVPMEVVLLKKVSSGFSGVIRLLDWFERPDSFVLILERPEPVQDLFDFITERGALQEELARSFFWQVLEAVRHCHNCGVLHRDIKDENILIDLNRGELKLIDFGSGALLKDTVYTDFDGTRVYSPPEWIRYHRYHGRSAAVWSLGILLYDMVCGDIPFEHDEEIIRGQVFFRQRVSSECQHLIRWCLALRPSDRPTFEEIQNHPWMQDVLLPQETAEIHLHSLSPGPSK
T1 sequence (Q9UK32 whole entry): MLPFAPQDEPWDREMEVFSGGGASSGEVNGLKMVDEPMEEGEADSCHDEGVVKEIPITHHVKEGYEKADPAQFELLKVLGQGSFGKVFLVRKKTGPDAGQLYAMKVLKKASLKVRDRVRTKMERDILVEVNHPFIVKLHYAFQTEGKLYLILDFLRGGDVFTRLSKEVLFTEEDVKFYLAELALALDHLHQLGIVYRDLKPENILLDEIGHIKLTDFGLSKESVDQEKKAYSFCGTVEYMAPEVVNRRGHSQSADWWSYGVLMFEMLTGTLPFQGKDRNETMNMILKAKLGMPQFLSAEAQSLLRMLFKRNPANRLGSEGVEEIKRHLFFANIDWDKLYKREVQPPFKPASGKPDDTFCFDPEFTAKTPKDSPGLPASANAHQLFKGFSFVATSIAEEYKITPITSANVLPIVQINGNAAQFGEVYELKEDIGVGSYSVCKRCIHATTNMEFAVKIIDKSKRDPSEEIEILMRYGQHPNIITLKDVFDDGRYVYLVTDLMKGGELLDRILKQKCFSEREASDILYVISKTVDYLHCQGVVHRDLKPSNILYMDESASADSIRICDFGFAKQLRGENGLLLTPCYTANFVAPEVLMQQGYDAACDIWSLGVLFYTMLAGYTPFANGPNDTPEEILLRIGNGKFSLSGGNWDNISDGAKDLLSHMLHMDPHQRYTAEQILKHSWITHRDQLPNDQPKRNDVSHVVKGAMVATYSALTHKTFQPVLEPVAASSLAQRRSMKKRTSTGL
T4 sequence (Q9HC98 whole entry): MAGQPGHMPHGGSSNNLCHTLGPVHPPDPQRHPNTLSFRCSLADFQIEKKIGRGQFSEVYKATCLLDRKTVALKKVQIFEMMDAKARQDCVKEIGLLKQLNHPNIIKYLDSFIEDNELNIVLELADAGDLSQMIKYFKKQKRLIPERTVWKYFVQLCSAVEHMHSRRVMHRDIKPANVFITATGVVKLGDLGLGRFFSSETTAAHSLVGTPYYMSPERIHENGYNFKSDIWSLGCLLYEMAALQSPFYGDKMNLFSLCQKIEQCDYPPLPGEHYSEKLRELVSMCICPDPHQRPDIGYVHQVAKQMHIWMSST

remaining binding at 10 µM (KinomeScan kinase panel [10]; TNIK)	SMILES	score (%) (KinomeScan kinase panel [1]; kinase RPS6KA6(Kin.Dom.1-N-terminal))	score (%) (KinomeScan kinase panel [1]; kinase RPS6KA6(Kin.Dom.2-C-terminal))	remaining binding at 10 µM (KinomeScan kinase panel [2])	remaining binding at 10 µM (KinomeScan kinase panel [3])	remaining binding at 10 µM (KinomeScan kinase panel [4])	remaining binding at 10 µM (KinomeScan kinase panel [5])	remaining binding at 10 µM (KinomeScan kinase panel [6])	remaining binding at 10 µM (KinomeScan kinase panel [7])	remaining binding at 10 µM (KinomeScan kinase panel [8])	score (%) (KinomeScan kinase panel [9])	remaining binding at 10 µM (KinomeScan kinase panel [10]; kinase TNIK)	score (%) (KinomeScan kinase panel [1]; RPS6KA6(Kin.Dom.1))	score (%) (KinomeScan kinase panel [1]; RPS6KA6(Kin.Dom.2))	score (%) (KinomeScan kinase panel [1]; kinase RSK4(Kin.Dom.1-N-terminal))	score (%) (KinomeScan kinase panel [1]; kinase RSK4(Kin.Dom.2-C-terminal))
	CCN1CCN(Cc2ccc(NC(=O)c3ccc(C)c(NC(=O)c4cncc(-c5cccs5)c4)c3)cc2C(F)(F)F)CC1 [ALW-II-41-27]	nb (Hits values higher than 30% were considered negative (no binding: nb))	nb (Hits values higher than 30% were considered negative (no binding: nb))	> 30%	> 30%	> 30%	> 30%	> 30%	> 30%	> 30%	20%	11%				
13%	CCN1CCN(Cc2ccc(NC(=O)c3ccc(C)c(/C=C/c4cnc5[nH]ccc5c4Cl)c3)cc2C(F)(F)F)CC1 [HG-6-63-01, (E)-3-(2-(4-chloro-1H-pyrrolo[2,3-b]pyridin-5-yl)vinyl)-N-(4-((4-ethylpiperazin-1-yl)methyl)-3-(trifluoromethyl)phenyl)-4-methylbenzamide]			> 30%	> 30%	> 30%	20%	> 30%	> 30%	> 30%	nb (Hits values higher than 30% were considered negative (no binding: nb))		nb (Hits values higher than 30% were considered negative (no binding: nb))	nb (Hits values higher than 30% were considered negative (no binding: nb))		
	CCN1CCN(Cc2ccc(NC(=O)c3ccc(C)c(C#Cc4cccnc4)c3)cc2C(F)(F)F)CC1 [XMD15-44]			5.2%	16%	90%	> 30%	84%	> 30%	88%	nb (Hits values higher than 30% were considered negative (no binding: nb))	1.8%			47%	6.8%
